Results from ChEMBL document CHEMBL4004803, “Syntheses and antibacterial activity of soluble 9-bromo substituted indolizinoquinoline-5,12-dione derivatives” (Eur J Med Chem, 2017).
Converted amounts (≈) assume the structure as drawn.

Assays:
Staphylococcus aureus [1] = assay: Antibacterial activity against methicillin-resistant Staphylococcus aureus 122045 clinical isolate after 20 to 24 hrs by two-fold microdilution method; type: functional
Staphylococcus aureus [2] = assay: Antibacterial activity against methicillin-resistant Staphylococcus aureus 112106 clinical isolate after 20 to 24 hrs by two-fold microdilution method; type: functional
Staphylococcus aureus [3] = assay: Antibacterial activity against methicillin-resistant Staphylococcus aureus 1024010 clinical isolate after 20 to 24 hrs by two-fold microdilution method; type: functional
Staphylococcus aureus [4] = assay: Antibacterial activity against methicillin-resistant Staphylococcus aureus 109244 clinical isolate after 20 to 24 hrs by two-fold microdilution method; type: functional
Staphylococcus aureus [5] = assay: Antibacterial activity against methicillin-resistant Staphylococcus aureus 1111047-1 clinical isolate after 20 to 24 hrs by two-fold microdilution method; type: functional
Staphylococcus aureus [6] = assay: Antibacterial activity against methicillin-resistant Staphylococcus aureus GLH14 clinical isolate after 20 to 24 hrs by two-fold microdilution method; type: functional
Staphylococcus aureus [7] = assay: Antibacterial activity against methicillin-resistant Staphylococcus aureus 110910-2 clinical isolate after 20 to 24 hrs by two-fold microdilution method; type: functional
Staphylococcus aureus [8] = assay: Antibacterial activity against methicillin-resistant Staphylococcus aureus 1212057-1 clinical isolate after 20 to 24 hrs by two-fold microdilution method; type: functional
Staphylococcus aureus [9] = assay: Antibacterial activity against methicillin-resistant Staphylococcus aureus 109016 clinical isolate after 20 to 24 hrs by two-fold microdilution method; type: functional
Staphylococcus aureus [10] = assay: Antibacterial activity against methicillin-resistant Staphylococcus aureus 503025 clinical isolate after 20 to 24 hrs by two-fold microdilution method; type: functional
Staphylococcus aureus [11] = assay: Antibacterial activity against methicillin-resistant Staphylococcus aureus 1024004-2 clinical isolate after 20 to 24 hrs by two-fold microdilution method; type: functional
Staphylococcus aureus [12] = assay: Antibacterial activity against methicillin-resistant Staphylococcus aureus 1012029 clinical isolate after 20 to 24 hrs by two-fold microdilution method; type: functional
Staphylococcus aureus [13] = assay: Antibacterial activity against methicillin-resistant Staphylococcus aureus 19950 clinical isolate after 20 to 24 hrs by two-fold microdilution method; type: functional
Staphylococcus aureus [14] = assay: Antibacterial activity against methicillin-resistant Staphylococcus aureus 130031 clinical isolate after 20 to 24 hrs by two-fold microdilution method; type: functional
Staphylococcus aureus [15] = assay: Antibacterial activity against methicillin-resistant Staphylococcus aureus 1101016 clinical isolate after 20 to 24 hrs by two-fold microdilution method; type: functional
Staphylococcus aureus [16] = assay: Antibacterial activity against methicillin-resistant Staphylococcus aureus 121026 clinical isolate after 20 to 24 hrs by two-fold microdilution method; type: functional
[17] = test system: Staphylococcus epidermidis; assay: Antibacterial activity against Staphylococcus epidermidis ATCC 12228 after 20 to 24 hrs by two-fold microdilution method; type: functional
Streptococcus pyogenes = assay: Antibacterial activity against Streptococcus pyogenes ATCC 19615 after 20 to 24 hrs by two-fold microdilution method; type: functional
[18] = Solubility of the compound in water at 25 degC measured after shaking for 4 hrs by UV method; type: physicochemical; details: buffer, 4 h
Staphylococcus aureus [19] = assay: Antibacterial activity against methicillin-resistant Staphylococcus aureus 125025 clinical isolate after 20 to 24 hrs by two-fold microdilution method; type: functional
Staphylococcus aureus [20] = assay: Antibacterial activity against methicillin-resistant Staphylococcus aureus 1128040 clinical isolate after 20 to 24 hrs by two-fold microdilution method; type: functional
Staphylococcus aureus [21] = assay: Antibacterial activity against methicillin-resistant Staphylococcus aureus 121969 clinical isolate after 20 to 24 hrs by two-fold microdilution method; type: functional
Staphylococcus aureus [22] = assay: Antibacterial activity against methicillin-resistant Staphylococcus aureus 3250299 clinical isolate after 20 to 24 hrs by two-fold microdilution method; type: functional
Staphylococcus aureus [23] = assay: Antibacterial activity against methicillin-resistant Staphylococcus aureus 519028 clinical isolate after 20 to 24 hrs by two-fold microdilution method; type: functional
Staphylococcus aureus [24] = assay: Antibacterial activity against methicillin-resistant Staphylococcus aureus 316038 clinical isolate after 20 to 24 hrs by two-fold microdilution method; type: functional
Staphylococcus aureus [25] = assay: Antibacterial activity against methicillin-resistant Staphylococcus aureus 919205 clinical isolate after 20 to 24 hrs by two-fold microdilution method; type: functional
Staphylococcus aureus [26] = assay: Antibacterial activity against methicillin-resistant Staphylococcus aureus 1103006 clinical isolate after 20 to 24 hrs by two-fold microdilution method; type: functional
Staphylococcus aureus [27] = assay: Antibacterial activity against methicillin-resistant Staphylococcus aureus 215073 clinical isolate after 20 to 24 hrs by two-fold microdilution method; type: functional
Staphylococcus aureus [28] = assay: Antibacterial activity against methicillin-resistant Staphylococcus aureus 1029025 clinical isolate after 20 to 24 hrs by two-fold microdilution method; type: functional
Staphylococcus aureus [29] = assay: Antibacterial activity against methicillin-resistant Staphylococcus aureus 1108204 clinical isolate after 20 to 24 hrs by two-fold microdilution method; type: functional
Staphylococcus aureus [30] = assay: Antibacterial activity against methicillin-resistant Staphylococcus aureus 502025 clinical isolate after 20 to 24 hrs by two-fold microdilution method; type: functional
Staphylococcus aureus [31] = assay: Antibacterial activity against methicillin-resistant Staphylococcus aureus 110328-1 clinical isolate after 20 to 24 hrs by two-fold microdilution method; type: functional
Staphylococcus aureus [32] = assay: Antibacterial activity against methicillin-resistant Staphylococcus aureus 12308 clinical isolate after 20 to 24 hrs by two-fold microdilution method; type: functional
Staphylococcus aureus [33] = assay: Antibacterial activity against methicillin-resistant Staphylococcus aureus 1106003 clinical isolate after 20 to 24 hrs by two-fold microdilution method; type: functional
Staphylococcus aureus [34] = assay: Antibacterial activity against methicillin-resistant Staphylococcus aureus 1214023 clinical isolate after 20 to 24 hrs by two-fold microdilution method; type: functional
Staphylococcus aureus [35] = assay: Antibacterial activity against methicillin-resistant Staphylococcus aureus 305026 clinical isolate after 20 to 24 hrs by two-fold microdilution method; type: functional
Staphylococcus aureus [36] = assay: Antibacterial activity against methicillin-resistant Staphylococcus aureus 1216052 clinical isolate after 20 to 24 hrs by two-fold microdilution method; type: functional
Staphylococcus aureus [37] = assay: Antibacterial activity against methicillin-resistant Staphylococcus aureus 316031 clinical isolate after 20 to 24 hrs by two-fold microdilution method; type: functional
Staphylococcus aureus [38] = assay: Antibacterial activity against methicillin-resistant Staphylococcus aureus 831024 clinical isolate after 20 to 24 hrs by two-fold microdilution method; type: functional
Staphylococcus aureus [39] = assay: Antibacterial activity against methicillin-resistant Staphylococcus aureus 1023043 clinical isolate after 20 to 24 hrs by two-fold microdilution method; type: functional
Staphylococcus aureus [40] = assay: Antibacterial activity against methicillin-resistant Staphylococcus aureus GLH15 clinical isolate after 20 to 24 hrs by two-fold microdilution method; type: functional
Staphylococcus aureus [41] = assay: Antibacterial activity against methicillin-resistant Staphylococcus aureus 1211026 clinical isolate after 20 to 24 hrs by two-fold microdilution method; type: functional
Staphylococcus aureus [42] = assay: Antibacterial activity against methicillin-resistant Staphylococcus aureus 518036 clinical isolate after 20 to 24 hrs by two-fold microdilution method; type: functional
Staphylococcus aureus [43] = assay: Antibacterial activity against methicillin-resistant Staphylococcus aureus 122710-2 clinical isolate after 20 to 24 hrs by two-fold microdilution method; type: functional
Staphylococcus aureus [44] = assay: Antibacterial activity against methicillin-resistant Staphylococcus aureus 214026 clinical isolate after 20 to 24 hrs by two-fold microdilution method; type: functional
Staphylococcus aureus [45] = assay: Antibacterial activity against methicillin-resistant Staphylococcus aureus 110325 clinical isolate after 20 to 24 hrs by two-fold microdilution method; type: functional
Staphylococcus aureus [46] = assay: Antibacterial activity against methicillin-resistant Staphylococcus aureus 20339 clinical isolate after 20 to 24 hrs by two-fold microdilution method; type: functional

O=C1c2cccnc2C(=O)c2c1c(C(=O)OCCCCN1CCOCC1)c1ccc(Br)cn21
MIC (Staphylococcus aureus [1]): 0.125 µg/mL (≈ 0.244 µM) | MIC (Staphylococcus aureus [2]): 0.5 µg/mL (≈ 0.976 µM) | MIC (Staphylococcus aureus [3]): 0.5 µg/mL (≈ 0.976 µM) | MIC (Staphylococcus aureus [4]): 0.25 µg/mL (≈ 0.488 µM) | MIC (Staphylococcus aureus [5]): 1 µg/mL (≈ 1.95 µM) | MIC (Staphylococcus aureus [6]): 0.5 µg/mL (≈ 0.976 µM) | MIC (Staphylococcus aureus [7]): 0.5 µg/mL (≈ 0.976 µM) | MIC (Staphylococcus aureus [8]): 0.25 µg/mL (≈ 0.488 µM) | MIC (Staphylococcus aureus [9]): 0.5 µg/mL (≈ 0.976 µM) | MIC (Staphylococcus aureus [10]): 1 µg/mL (≈ 1.95 µM) | MIC (Staphylococcus aureus [11]): 0.5 µg/mL (≈ 0.976 µM) | MIC (Staphylococcus aureus [12]): 0.25 µg/mL (≈ 0.488 µM) | MIC (Staphylococcus aureus [13]): 1 µg/mL (≈ 1.95 µM) | MIC (Staphylococcus aureus [14]): 1 µg/mL (≈ 1.95 µM) | MIC (Staphylococcus aureus [15]): 0.25 µg/mL (≈ 0.488 µM) | MIC (Staphylococcus aureus [16]): 0.25 µg/mL (≈ 0.488 µM) | MIC [17]: ≤ 0.0078 µg/mL | MIC (Streptococcus pyogenes): 4 µg/mL (≈ 7.81 µM) | solubility [18]: Insoluble | MIC (Staphylococcus aureus [19]): 0.25 µg/mL (≈ 0.488 µM) | MIC (Staphylococcus aureus [20]): 0.25 µg/mL (≈ 0.488 µM) | MIC (Staphylococcus aureus [21]): 1 µg/mL (≈ 1.95 µM) | MIC (Staphylococcus aureus [22]): 0.5 µg/mL (≈ 0.976 µM) | MIC (Staphylococcus aureus [23]): 0.5 µg/mL (≈ 0.976 µM) | MIC (Staphylococcus aureus [24]): 0.25 µg/mL (≈ 0.488 µM) | MIC (Staphylococcus aureus [25]): 1 µg/mL (≈ 1.95 µM) | MIC (Staphylococcus aureus [26]): > 16 µg/mL | MIC (Staphylococcus aureus [27]): 0.063 µg/mL (≈ 0.123 µM) | MIC (Staphylococcus aureus [28]): 0.5 µg/mL (≈ 0.976 µM) | MIC (Staphylococcus aureus [29]): 0.5 µg/mL (≈ 0.976 µM) | MIC (Staphylococcus aureus [30]): 0.5 µg/mL (≈ 0.976 µM) | MIC (Staphylococcus aureus [31]): ≤ 0.0078 µg/mL | MIC (Staphylococcus aureus [32]): 0.25 µg/mL (≈ 0.488 µM) | MIC (Staphylococcus aureus [33]): 16 µg/mL (≈ 31.2 µM) | MIC (Staphylococcus aureus [34]): 0.031 µg/mL (≈ 0.0605 µM) | MIC (Staphylococcus aureus [35]): 0.125 µg/mL (≈ 0.244 µM) | MIC (Staphylococcus aureus [36]): 8 µg/mL (≈ 15.6 µM) | MIC (Staphylococcus aureus [37]): 0.5 µg/mL (≈ 0.976 µM) | MIC (Staphylococcus aureus [38]): 0.5 µg/mL (≈ 0.976 µM) | MIC (Staphylococcus aureus [39]): 0.25 µg/mL (≈ 0.488 µM) | MIC (Staphylococcus aureus [40]): 0.25 µg/mL (≈ 0.488 µM) | MIC (Staphylococcus aureus [41]): 0.125 µg/mL (≈ 0.244 µM) | MIC (Staphylococcus aureus [42]): 0.5 µg/mL (≈ 0.976 µM) | MIC (Staphylococcus aureus [43]): 0.25 µg/mL (≈ 0.488 µM) | MIC (Staphylococcus aureus [44]): 0.063 µg/mL (≈ 0.123 µM) | MIC (Staphylococcus aureus [45]): 0.25 µg/mL (≈ 0.488 µM) | MIC (Staphylococcus aureus [46]): 0.5 µg/mL (≈ 0.976 µM)
